The values that follow come from patent US9302991B2, “Arylamide derivatives as TTX-S blockers” (RaQualia Pharma Inc., priority 2010, dated 2016).

Usually IC50 stands for the concentration that inhibits the measured activity by half.

For one experiment, the target named is T1, human Nav1.3 channels (Homo sapiens, UniProt Q9NY46).
T1 construct: expressed in transfected cells; host or cells: HEK293
In words: FRET assay, human Nav1.3 (EFS on FDSS). The class given is cell-based. The settings on record: HEK293 cells expressing human Nav1.3, read-out: IC50 against Nav1.3. The gist of the method:
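HEK293 cells expressing the channel, loaded with 10 microM CC2-DMPE then 15 microM DiSBAC2(3) plus 0.555 mM VABSC-1 in pH 7.4 HEPES buffer at room temperature. Membrane potential changes evoked by electrical field stimulation after compound addition; IC50 from 440 nm-normalized FRET ratios.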

The target in another experiment is T2, human Nav1.7 channels (Homo sapiens, UniProt Q15858).
T2 construct: expressed in transfected cells; host or cells: CHO
In words: FRET assay, human Nav1.7 (EFS on FDSS). The class given is cell-based. The settings on record: CHO cells expressing human Nav1.7, read-out: IC50 against Nav1.7. In a few lines:
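CHO cells stably expressing the channel, loaded with CC2-DMPE (10 µM) then DiSBAC2(3) (15 µM) plus VABSC-1, in HEPES-buffered saline pH 7.4 at room temperature. Electrical field stimulation on FDSS; FRET ratio at 440 nm fitted for IC50.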

T2 sequence (Q15858 whole entry): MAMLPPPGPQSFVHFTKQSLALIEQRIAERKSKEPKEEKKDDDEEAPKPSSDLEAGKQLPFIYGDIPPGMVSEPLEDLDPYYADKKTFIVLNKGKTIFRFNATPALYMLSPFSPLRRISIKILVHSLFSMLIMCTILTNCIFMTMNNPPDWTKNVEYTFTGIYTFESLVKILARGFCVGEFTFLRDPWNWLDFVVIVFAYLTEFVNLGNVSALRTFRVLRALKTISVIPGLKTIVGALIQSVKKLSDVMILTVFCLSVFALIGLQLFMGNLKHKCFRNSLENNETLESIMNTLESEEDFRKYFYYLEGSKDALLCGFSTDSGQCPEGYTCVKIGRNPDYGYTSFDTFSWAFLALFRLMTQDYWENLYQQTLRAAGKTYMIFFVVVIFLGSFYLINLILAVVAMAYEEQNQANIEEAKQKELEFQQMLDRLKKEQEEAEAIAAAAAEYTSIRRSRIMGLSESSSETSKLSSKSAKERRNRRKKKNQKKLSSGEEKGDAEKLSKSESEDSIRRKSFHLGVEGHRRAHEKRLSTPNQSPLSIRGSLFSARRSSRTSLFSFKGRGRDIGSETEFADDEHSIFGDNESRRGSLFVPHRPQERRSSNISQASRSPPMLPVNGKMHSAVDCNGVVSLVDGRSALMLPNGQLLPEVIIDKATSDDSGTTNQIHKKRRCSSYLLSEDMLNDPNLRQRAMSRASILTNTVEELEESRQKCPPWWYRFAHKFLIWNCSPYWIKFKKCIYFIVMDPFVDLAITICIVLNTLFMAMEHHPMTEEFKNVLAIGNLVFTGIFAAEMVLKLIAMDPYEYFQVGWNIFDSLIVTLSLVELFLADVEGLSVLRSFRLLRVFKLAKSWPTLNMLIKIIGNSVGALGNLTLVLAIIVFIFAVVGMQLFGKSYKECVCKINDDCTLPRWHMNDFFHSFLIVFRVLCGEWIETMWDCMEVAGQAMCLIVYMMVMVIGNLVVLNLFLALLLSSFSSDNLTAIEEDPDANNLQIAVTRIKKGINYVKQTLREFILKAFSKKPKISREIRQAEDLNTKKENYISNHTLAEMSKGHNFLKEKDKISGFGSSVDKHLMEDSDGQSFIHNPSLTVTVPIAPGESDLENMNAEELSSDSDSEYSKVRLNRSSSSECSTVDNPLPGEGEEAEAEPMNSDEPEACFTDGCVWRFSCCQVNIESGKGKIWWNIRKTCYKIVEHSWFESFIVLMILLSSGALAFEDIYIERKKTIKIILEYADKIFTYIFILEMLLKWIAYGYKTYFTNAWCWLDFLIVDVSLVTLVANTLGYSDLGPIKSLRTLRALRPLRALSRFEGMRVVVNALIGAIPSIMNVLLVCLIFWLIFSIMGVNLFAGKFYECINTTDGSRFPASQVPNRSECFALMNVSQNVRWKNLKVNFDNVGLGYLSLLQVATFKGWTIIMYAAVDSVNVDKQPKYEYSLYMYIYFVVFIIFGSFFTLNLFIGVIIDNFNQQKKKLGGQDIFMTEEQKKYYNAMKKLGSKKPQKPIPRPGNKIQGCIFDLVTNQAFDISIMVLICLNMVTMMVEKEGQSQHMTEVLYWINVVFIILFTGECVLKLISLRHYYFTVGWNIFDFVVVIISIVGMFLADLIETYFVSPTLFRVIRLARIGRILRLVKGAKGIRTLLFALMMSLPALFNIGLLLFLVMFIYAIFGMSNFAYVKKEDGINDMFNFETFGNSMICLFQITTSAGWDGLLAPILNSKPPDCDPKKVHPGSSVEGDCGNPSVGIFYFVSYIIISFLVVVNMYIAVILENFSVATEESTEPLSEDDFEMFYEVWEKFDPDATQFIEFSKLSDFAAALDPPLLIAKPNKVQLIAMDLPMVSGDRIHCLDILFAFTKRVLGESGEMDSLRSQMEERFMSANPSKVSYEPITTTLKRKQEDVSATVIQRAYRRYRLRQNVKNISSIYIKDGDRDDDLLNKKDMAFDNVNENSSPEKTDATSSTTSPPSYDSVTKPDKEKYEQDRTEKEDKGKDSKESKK
T1 sequence (Q9NY46 whole entry): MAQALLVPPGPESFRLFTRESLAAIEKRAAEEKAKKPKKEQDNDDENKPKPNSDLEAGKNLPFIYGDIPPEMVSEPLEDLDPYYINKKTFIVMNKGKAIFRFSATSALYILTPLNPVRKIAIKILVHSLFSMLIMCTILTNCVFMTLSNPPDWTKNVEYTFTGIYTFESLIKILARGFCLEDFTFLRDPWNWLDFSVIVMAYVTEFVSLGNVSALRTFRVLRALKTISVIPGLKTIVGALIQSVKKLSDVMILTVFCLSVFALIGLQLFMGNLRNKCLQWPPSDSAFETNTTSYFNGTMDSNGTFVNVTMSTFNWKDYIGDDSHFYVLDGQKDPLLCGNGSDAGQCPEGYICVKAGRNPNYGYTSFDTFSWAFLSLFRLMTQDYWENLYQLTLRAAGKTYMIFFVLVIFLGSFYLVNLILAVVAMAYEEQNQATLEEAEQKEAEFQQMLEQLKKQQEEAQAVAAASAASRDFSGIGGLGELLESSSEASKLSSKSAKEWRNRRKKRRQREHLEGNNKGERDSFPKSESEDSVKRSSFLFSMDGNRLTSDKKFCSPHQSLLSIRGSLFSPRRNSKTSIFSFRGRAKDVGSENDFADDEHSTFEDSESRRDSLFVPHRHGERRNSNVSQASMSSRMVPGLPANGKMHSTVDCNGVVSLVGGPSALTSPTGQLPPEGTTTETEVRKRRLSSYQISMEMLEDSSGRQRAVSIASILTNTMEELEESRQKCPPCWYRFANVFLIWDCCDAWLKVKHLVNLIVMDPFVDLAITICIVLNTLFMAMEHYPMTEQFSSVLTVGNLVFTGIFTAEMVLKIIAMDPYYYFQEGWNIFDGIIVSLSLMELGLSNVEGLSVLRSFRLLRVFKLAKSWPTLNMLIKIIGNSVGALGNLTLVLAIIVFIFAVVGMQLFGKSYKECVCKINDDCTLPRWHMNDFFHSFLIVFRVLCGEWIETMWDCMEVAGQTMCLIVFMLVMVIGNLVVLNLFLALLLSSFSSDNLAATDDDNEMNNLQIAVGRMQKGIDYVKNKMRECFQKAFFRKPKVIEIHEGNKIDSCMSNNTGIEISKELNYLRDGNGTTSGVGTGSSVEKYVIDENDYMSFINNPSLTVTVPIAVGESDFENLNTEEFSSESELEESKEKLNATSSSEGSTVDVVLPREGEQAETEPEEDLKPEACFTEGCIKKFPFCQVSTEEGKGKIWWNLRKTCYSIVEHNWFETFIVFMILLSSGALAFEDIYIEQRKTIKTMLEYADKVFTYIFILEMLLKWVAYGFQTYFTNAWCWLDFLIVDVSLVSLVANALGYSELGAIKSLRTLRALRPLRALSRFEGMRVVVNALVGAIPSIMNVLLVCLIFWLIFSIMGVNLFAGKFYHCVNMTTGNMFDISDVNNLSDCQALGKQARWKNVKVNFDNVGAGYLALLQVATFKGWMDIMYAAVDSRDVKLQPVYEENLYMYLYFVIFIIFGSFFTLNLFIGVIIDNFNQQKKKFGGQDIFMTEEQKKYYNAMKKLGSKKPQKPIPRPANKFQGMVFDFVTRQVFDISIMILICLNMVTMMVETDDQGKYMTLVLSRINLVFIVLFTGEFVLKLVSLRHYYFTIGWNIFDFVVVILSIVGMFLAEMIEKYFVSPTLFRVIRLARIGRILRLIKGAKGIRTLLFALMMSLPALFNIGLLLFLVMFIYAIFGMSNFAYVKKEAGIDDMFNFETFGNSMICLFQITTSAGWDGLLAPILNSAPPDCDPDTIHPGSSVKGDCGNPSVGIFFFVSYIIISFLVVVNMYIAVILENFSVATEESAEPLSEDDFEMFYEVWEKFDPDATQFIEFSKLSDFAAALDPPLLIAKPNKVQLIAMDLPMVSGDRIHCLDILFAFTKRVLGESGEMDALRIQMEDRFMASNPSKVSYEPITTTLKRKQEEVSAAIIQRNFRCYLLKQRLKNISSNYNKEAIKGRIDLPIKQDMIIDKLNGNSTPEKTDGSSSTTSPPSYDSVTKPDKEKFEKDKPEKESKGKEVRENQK

`Cc1cc(C(=O)NC(C)c2cnc(OCC(F)(F)C(F)F)c(C)c2)cc(NC(=O)C(C)C)n1` (single isomer, unassigned) [Example 905, 2-isobutyramido-6-methyl-N-(1-(5-methyl-6-(2,2,3,3-tetrafluoropropoxy)pyridin-3-yl)ethyl)isonicotinamide]: the 50% inhibitory concentration (IC50) at human Nav1.3 channels and at human Nav1.7 channels was < 1000 nM throughout.
In the case of `Cc1cc(C(=O)NCc2ccc(OC(F)(F)F)c(C)c2)nc(NC(=O)C2CC2)n1` [Example 811, 2-(cyclopropanecarboxamido)-6-methyl-N-(3-methyl-4-(trifluoromethoxy)benzyl)pyrimidine-4-carboxamide], the IC50 at human Nav1.3 channels and at human Nav1.7 channels was < 1000 nM each time.
For the compound `Cc1cc(C(=O)NCc2ccc(OCC(F)(F)F)nc2)cc(NC(=O)C(C)C)n1` [Example 483, 2-isobutyramido-6-methyl-N-((6-(2,2,2-trifluoroethoxy)pyridin-3-yl)methyl)isonicotinamide], the half-maximal inhibitory concentration (IC50) at human Nav1.3 channels and at human Nav1.7 channels was < 1000 nM each time.
Turning to `CCc1cc(CNC(=O)c2cc(C)nc(NC(=O)C(C)C)c2)cnc1OCC(F)F` [Example 911, N-((6-(2,2-difluoroethoxy)-5-ethylpyridin-3-yl)methyl)-2-isobutyramido-6-methylisonicotinamide], the IC50 on human Nav1.3 channels and on human Nav1.7 channels was < 1000 nM throughout.
Consider `O=C(NCc1cnc(OCC(F)(F)F)c(Br)c1)c1ccnc(NC(=O)C2CC2)c1` [Example 896, N-((5-bromo-6-(2,2,2-trifluoroethoxy)pyridin-3-yl)methyl)-2-(cyclopropanecarboxamido)isonicotinamide], for which the IC50 on human Nav1.3 channels and at human Nav1.7 channels was < 1000 nM each time.
In the case of `CC(=O)Nc1cc(C(=O)NCc2cnc(OCC(F)(F)C(F)F)c(C)c2)ccn1` [Example 939, 2-acetamido-N-((5-methyl-6-(2,2,3,3-tetrafluoropropoxy)pyridin-3-yl)methyl)isonicotinamide], the IC50 on human Nav1.3 channels and at human Nav1.7 channels was < 1000 nM each time.
`Cc1c(CNC(=O)c2ccnc(NC(=O)C(C)C)c2)cccc1C(F)(F)F` [Example 816, 2-isobutyramido-N-(2-methyl-3-(trifluoromethyl)benzyl)isonicotinamide]: the half-inhibitory concentration (IC50) on human Nav1.3 channels and at human Nav1.7 channels was < 1000 nM in each case.
For the compound `Cc1cc(C(=O)NC(C)c2cnc(OCC(F)(F)F)c(C)c2)nc(Nc2ncco2)n1` (single isomer, unassigned) [Example 456, 6-methyl-N-(1-(5-methyl-6-(2,2,2-trifluoroethoxy)pyridin-3-yl)ethyl)-2-(oxazol-2-ylamino)pyrimidine-4-carboxamide], the IC50 at human Nav1.3 channels and on human Nav1.7 channels was < 1000 nM each time.
For `CC(=O)Nc1cc(C(=O)NCc2cnc(OCC(F)(F)F)c(Br)c2)ccn1` [Example 762, 2-acetamido-N-((5-bromo-6-(2,2,2-trifluoroethoxy)pyridin-3-yl)methyl)isonicotinamide], the IC50 on human Nav1.3 channels and on human Nav1.7 channels was < 1000 nM throughout.
For the compound `Cc1cc(C(C)NC(=O)c2ccnc(NC(=O)C3CCC3)n2)cnc1OCC(F)(F)F` (single isomer, unassigned) [Example 226, 2-(cyclobutanecarboxamido)-N-(1-(5-methyl-6-(2,2,2-trifluoroethoxy)pyridin-3-yl)ethyl)pyrimidine-4-carboxamide], the half-maximal inhibitory concentration (IC50) at human Nav1.3 channels and at human Nav1.7 channels was < 1000 nM throughout.
For the compound `Cc1cc(C(=O)NCc2cccc(OC(F)(F)F)c2)cc(NC(=O)C2CC2)n1` [Example 836, 2-(cyclopropanecarboxamido)-6-methyl-N-(3-(trifluoromethoxy)benzyl)isonicotinamide], the IC50 at human Nav1.3 channels and at human Nav1.7 channels was < 1000 nM each time.
In the case of `COc1cc(CNC(=O)c2cc(C)nc(NC(=O)C(C)C)n2)cnc1OCC(F)(F)F` [Example 443, 2-isobutyramido-N-((5-methoxy-6-(2,2,2-trifluoroethoxy)pyridin-3-yl)methyl)-6-methylpyrimidine-4-carboxamide], the half-maximal inhibitory concentration (IC50) on human Nav1.3 channels and at human Nav1.7 channels was < 1000 nM each time.
Turning to `Cc1cc(CNC(=O)c2ccnc(NC(=O)C3CC3)n2)cnc1OCC(F)(F)C(F)F` [Example 943, 2-(cyclopropanecarboxamido)-N-((5-methyl-6-(2,2,3,3-tetrafluoropropoxy)pyridin-3-yl)methyl)pyrimidine-4-carboxamide], the IC50 on human Nav1.3 channels and at human Nav1.7 channels was < 1000 nM each time.
Regarding `Cc1cc(C(=O)NCc2cnc(OCC(F)(F)F)c(Br)c2)nc(NC(=O)C2CC2)n1` [Example 902, N-((5-bromo-6-(2,2,2-trifluoroethoxy)pyridin-3-yl)methyl)-2-(cyclopropanecarboxamido)-6-methylpyrimidine-4-carboxamide], the IC50 on human Nav1.3 channels and at human Nav1.7 channels was < 1000 nM each time.
Consider `CC(=O)Nc1cc(C(=O)NCc2cc(C)cc(OC(F)(F)F)c2)ccn1` [Example 597, 2-acetamido-N-(3-methyl-5-(trifluoromethoxy)benzyl)isonicotinamide], for which the IC50 at human Nav1.3 channels and on human Nav1.7 channels was < 1000 nM throughout.
Regarding `CCC(=O)Nc1cc(C(=O)NC(C)c2ccc(OCC(F)(F)F)c(Cl)c2)cc(C)n1` (single isomer, unassigned) [Example 677, N-(1-(3-chloro-4-(2,2,2-trifluoroethoxy)phenyl)ethyl)-2-methyl-6-propionamidoisonicotinamide], the IC50 on human Nav1.3 channels and at human Nav1.7 channels was < 1000 nM each time.
Take `CCC(=O)Nc1cc(C(=O)NCc2cccc(OCC(F)(F)F)n2)cc(C)n1` [Example 467, 2-methyl-6-propionamido-N-((6-(2,2,2-trifluoroethoxy)pyridin-2-yl)methyl)isonicotinamide]: the half-maximal inhibitory concentration (IC50) on human Nav1.3 channels and at human Nav1.7 channels was < 1000 nM each time.
For `CC(=O)Nc1cc(C(=O)NCc2cccc(C(F)(F)F)c2C)cc(C)n1` [Example 815, 2-acetamido-6-methyl-N-(2-methyl-3-(trifluoromethyl)benzyl)isonicotinamide], the 50% inhibitory concentration (IC50) on human Nav1.3 channels and on human Nav1.7 channels was < 1000 nM each time.
As for `Cc1cc(C(=O)NCc2cnc(OCC(F)(F)F)c(C)c2)cc(NC(=O)CC2CC2)n1` [Example 954, 2-(2-cyclopropylacetamido)-6-methyl-N-((5-methyl-6-(2,2,2-trifluoroethoxy)pyridin-3-yl)methyl)isonicotinamide], the half-maximal inhibitory concentration (IC50) at human Nav1.3 channels and at human Nav1.7 channels was < 1000 nM throughout.
On to `CC(=O)Nc1cc(C(=O)NC(C)c2cnc(OCC(F)(F)C(F)F)c(C)c2)cc(C)n1` (single isomer, unassigned) [Example 927, 2-acetamido-6-methyl-N-(1-(5-methyl-6-(2,2,3,3-tetrafluoropropoxy)pyridin-3-yl)ethyl)isonicotinamide], for which the IC50 at human Nav1.3 channels and on human Nav1.7 channels was < 1000 nM each time.
On to `COc1cc(CNC(=O)c2cc(C)nc(NC(=O)C(C)C)c2)cnc1OCC(F)(F)F` [Example 492, 2-isobutyramido-N-((5-methoxy-6-(2,2,2-trifluoroethoxy)pyridin-3-yl)methyl)-6-methylisonicotinamide], for which the IC50 on human Nav1.3 channels and at human Nav1.7 channels was < 1000 nM throughout.
As for `COc1c(CNC(=O)c2cc(C)nc(NC(=O)C(C)C)c2)cccc1C(F)(F)F` [Example 880, 2-isobutyramido-N-(2-methoxy-3-(trifluoromethyl)benzyl)-6-methylisonicotinamide], the concentration for half-maximal inhibition (IC50) on human Nav1.3 channels and on human Nav1.7 channels was < 1000 nM each time.
